Reference: US9127301B2, “Method of detecting the presence of polycyclic aromatic hydrocarbons” (BIOO SCIENTIFIC CORPORATION, priority 2012, dated 2015)

The molecules below were run against T1, NDO/NahB/NahC (Pseudomonas putida, UniProt P0A110) (assay: Coupled naphthalene dioxygenase/NahB/NahC colorimetric assay). Settings: not given.
T1 construct: made in house; host or cells: E. coli JM109 (DE3) (pDTG141) for NDO; E. coli BL21 Star (DE3) for NahB and NahC
T1 sequence (P0A110 whole entry): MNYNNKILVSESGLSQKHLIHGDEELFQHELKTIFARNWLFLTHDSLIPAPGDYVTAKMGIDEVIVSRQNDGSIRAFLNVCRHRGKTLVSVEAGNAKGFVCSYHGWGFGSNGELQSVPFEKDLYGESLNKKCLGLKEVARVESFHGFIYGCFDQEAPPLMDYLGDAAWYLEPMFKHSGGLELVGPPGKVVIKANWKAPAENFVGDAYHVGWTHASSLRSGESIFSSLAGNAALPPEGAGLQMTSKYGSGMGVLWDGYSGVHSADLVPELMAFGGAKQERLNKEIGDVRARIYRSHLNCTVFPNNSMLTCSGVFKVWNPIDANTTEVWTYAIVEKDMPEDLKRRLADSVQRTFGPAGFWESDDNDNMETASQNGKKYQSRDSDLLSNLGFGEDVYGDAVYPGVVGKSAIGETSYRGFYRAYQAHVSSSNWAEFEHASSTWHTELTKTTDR
T1 sequence (P0A112 whole entry, further chain): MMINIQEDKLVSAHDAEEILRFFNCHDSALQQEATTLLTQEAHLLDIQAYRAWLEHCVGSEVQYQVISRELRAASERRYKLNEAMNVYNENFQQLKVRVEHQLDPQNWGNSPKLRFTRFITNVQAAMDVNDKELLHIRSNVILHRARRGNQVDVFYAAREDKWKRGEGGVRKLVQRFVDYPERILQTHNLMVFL
Assay type: biochemical
Text: This disclosure relates to a method that uses microbial enzymes which degrade polyaromatic hydrocarbons to detect polycyclic aromatic hydrocarbons (PAH) in food and environmental samples. The first step in PAH degradation uses a PAH dioxygenase (PAHDO) enzyme such as naphthalene 1,2-dioxygenase (NDO) or biphenyl dioxygenase (BDO) to convert the PAH compound to PAH-(cis)-diol in an NADH- or NADPH-dependent manner.
The first reaction is catalyzed by the 1,2-dihydroxy-1,2-dihydronaphthalene dehydrogenase enzyme (NahB), while the second reaction is catalyzed by the enzyme 1,2-dihydroxynaphthalene dioxygenase (NahC). These enzymes are both derived from the bacteria Pseudomonas putida.
When these enzymes are used in succession, they function sequentially to convert colorless PAH compounds into a readily-detectable visible product class known as PAH chromene compounds.
(§1) 2 tubes each of NahB, Nahc, and NDO enzymes (1.7 ml aliquotes) were thawed from −20 C along with 2.6 mM NADH in water. 2.5 ml each of the NahC and NahB enzymes were desalted using PD-10 gel filtration and buffer exchanged into 20 mM Tris-Cl pH 8.5 at the same time. Once all of the reagents were thawed and desalted, positive and negative naphthalene reaction were made containing 127 ul each of NahB, NahC, and NDO with 20 ppm naphthalene in dimethylformamide (negative reactions contained only equal amounts dimethylformamide) and 0.133 mM NADH final concentration with a final reaction volume of 405 ul. The reaction was run at 25° C. for 2 hours and the sample absorbance was measured using a BioTek Synergy2 plate reader in the 320-640 nm wavelength range. […] Reactions for all PAH's conducted in the same, or a very similar format, depending on the volume of sample in the reaction. FIG. 4 depicts a spectrophotometric graph showing the absorbance caused by the presence of naphthalene placed in the above NDO/NahB/NahC assay.
With `c1ccc2cc3ccccc3cc2c1` [anthracene] the “detection of PAH compound by the colorimetric assay” value (“detection of PAH compound” for short) was “detect”. For `c1ccc2c(c1)cc1ccc3cccc4ccc2c1c34` [benz(a)pyrene], the “detection of PAH compound” value was “detect”. For `c1ccc(-c2ccccc2)cc1` [biphenyl], the “detection of PAH compound” value was “detect”. For `c1ccc2c(c1)[nH]c1ccccc12` [carbazole], the “detection of PAH compound” value was “detect”. With `c1ccc2c(c1)Cc1ccccc1-2` [fluorene] the “detection of PAH compound” value was “detect”. In the case of `c1ccc2ccccc2c1` [naphthalene], the “detection of PAH compound” value is reported as “detect”. `c1ccc2c(c1)ccc1ccccc12` [phenanthrene] was tested, and the “detection of PAH compound” value was “detect”.

Same assay, conditions: 20 ppm naphthalene in dimethylformamide, 0.133 mM NADH, 25° C., 2 hours
In the case of `c1ccc2ccccc2c1` [naphthalene], the “absorbance at 370 nm versus negative control reaction” value is reported as “significantly higher”.

What follows are molecules tested against T1, NDO/NahB/NahC (assay: Colorimetric detection of fluorene in spiked clam samples, NDO/NahB/NahC assay). Settings: clam homogenate spiked to 80 ppm fluorene, dichloromethane extraction, 10 μl of 200 ppm DMF solution in 411 μl reaction, 2 hr, 25° C.
Assay type: biochemical
Experimental: as §1
Approximately 25 g of clams were homogenized using a blender; a 2 g sample of this 25 g preparation was spiked to 80 ppm fluorene. […] The reaction was run for 2 hr at 25° C. and then read on a BioTek Synergy2 plate reader from 320-640 nm. FIG. 5 depicts the absorbance of fluorene spiked clam samples in the NDO/NahB/NahC assay.
In the case of `c1ccc2c(c1)Cc1ccccc1-2` [fluorene], the “absorbance at 390 nm versus buffer control or post-extraction spike” value is reported as “slightly higher”.
